Source: US12516056B2, “Compounds for inhibition of janus kinase 1” (MANKIND PHARMA LTD., priority 2019, dated 2026)

How the values were obtained:
Recombinant JAK3 = target: T1, Recombinant JAK3 (Homo sapiens, UniProt P52333); assay: JAK biochemical assay (LANCE Ultra TR-FRET), JAK3; conditions: recombinant JAK3, TR-FRET; read-out: Biochemical Assay (μM) JAK3
T1 construct: purchased Carna Biosciences
T1 sequence (P52333 1-1124): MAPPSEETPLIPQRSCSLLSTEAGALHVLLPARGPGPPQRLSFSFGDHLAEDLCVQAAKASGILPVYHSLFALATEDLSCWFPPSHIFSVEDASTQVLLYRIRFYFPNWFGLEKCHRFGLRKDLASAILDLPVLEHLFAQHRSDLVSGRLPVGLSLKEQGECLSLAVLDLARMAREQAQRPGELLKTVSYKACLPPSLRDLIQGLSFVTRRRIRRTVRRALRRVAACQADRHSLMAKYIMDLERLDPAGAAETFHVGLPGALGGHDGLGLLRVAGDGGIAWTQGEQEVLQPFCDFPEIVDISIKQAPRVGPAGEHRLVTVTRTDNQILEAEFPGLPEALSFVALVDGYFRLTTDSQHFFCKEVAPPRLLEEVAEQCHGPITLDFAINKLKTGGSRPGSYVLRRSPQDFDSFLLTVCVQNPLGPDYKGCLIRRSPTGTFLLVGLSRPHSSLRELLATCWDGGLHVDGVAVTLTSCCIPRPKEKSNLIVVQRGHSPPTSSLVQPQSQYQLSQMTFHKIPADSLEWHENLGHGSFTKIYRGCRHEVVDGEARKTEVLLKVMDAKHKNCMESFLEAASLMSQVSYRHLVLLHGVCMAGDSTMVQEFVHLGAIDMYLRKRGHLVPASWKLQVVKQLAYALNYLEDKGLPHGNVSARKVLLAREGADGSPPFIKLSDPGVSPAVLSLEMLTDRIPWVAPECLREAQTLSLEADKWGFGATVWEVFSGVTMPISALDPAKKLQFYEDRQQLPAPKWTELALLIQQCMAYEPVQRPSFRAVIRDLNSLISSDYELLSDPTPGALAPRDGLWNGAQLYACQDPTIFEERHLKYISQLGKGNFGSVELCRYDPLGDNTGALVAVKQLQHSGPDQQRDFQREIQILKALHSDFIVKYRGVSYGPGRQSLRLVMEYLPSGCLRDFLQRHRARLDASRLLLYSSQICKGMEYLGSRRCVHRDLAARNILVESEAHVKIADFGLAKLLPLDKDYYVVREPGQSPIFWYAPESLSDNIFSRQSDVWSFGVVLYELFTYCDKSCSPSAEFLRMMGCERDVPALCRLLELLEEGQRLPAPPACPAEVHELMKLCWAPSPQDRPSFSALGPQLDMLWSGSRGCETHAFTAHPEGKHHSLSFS
Protocol: (§1) Recombinant JAK1, JAK2, JAK3 and TYK2 (Carna Biosciences) were used to develop biochemical assays in 50 mM HEPES pH 7.5, 1 mM EGTA, 10 mM MgCl2, 2 mM DTT and 0.01% Tween-20. […] The intensity of the light emission is proportional to the level of ULight substrate phosphorylation. Compounds which interfere with JAK enzyme activity show a lesser substrate phosphorylation and values are projected in terms of % inhibition in comparison to vehicle control.

Recombinant TYK2 = target: T2, Recombinant TYK2 (Homo sapiens, UniProt P29597); assay: JAK biochemical assay (LANCE Ultra TR-FRET), TYK2; conditions: recombinant TYK2, TR-FRET; read-out: Biochemical Assay (μM) TYK2
T2 construct: purchased Carna Biosciences
Protocol: as §1

Recombinant JAK1 = target: T3, Recombinant JAK1 (Homo sapiens, UniProt P23458); assay: JAK biochemical assay (LANCE Ultra TR-FRET), JAK1; conditions: recombinant JAK1, TR-FRET; read-out: Biochemical Assay (μM) JAK1
T3 construct: purchased Carna Biosciences
Protocol: as §1

Recombinant JAK2 = target: T4, Recombinant JAK2 (Homo sapiens, UniProt O60674); assay: JAK biochemical assay (LANCE Ultra TR-FRET), JAK2; conditions: recombinant JAK2, TR-FRET; read-out: Biochemical Assay (μM) JAK2
T4 construct: purchased Carna Biosciences
Protocol: as §1

T3 sequence (P23458 whole entry): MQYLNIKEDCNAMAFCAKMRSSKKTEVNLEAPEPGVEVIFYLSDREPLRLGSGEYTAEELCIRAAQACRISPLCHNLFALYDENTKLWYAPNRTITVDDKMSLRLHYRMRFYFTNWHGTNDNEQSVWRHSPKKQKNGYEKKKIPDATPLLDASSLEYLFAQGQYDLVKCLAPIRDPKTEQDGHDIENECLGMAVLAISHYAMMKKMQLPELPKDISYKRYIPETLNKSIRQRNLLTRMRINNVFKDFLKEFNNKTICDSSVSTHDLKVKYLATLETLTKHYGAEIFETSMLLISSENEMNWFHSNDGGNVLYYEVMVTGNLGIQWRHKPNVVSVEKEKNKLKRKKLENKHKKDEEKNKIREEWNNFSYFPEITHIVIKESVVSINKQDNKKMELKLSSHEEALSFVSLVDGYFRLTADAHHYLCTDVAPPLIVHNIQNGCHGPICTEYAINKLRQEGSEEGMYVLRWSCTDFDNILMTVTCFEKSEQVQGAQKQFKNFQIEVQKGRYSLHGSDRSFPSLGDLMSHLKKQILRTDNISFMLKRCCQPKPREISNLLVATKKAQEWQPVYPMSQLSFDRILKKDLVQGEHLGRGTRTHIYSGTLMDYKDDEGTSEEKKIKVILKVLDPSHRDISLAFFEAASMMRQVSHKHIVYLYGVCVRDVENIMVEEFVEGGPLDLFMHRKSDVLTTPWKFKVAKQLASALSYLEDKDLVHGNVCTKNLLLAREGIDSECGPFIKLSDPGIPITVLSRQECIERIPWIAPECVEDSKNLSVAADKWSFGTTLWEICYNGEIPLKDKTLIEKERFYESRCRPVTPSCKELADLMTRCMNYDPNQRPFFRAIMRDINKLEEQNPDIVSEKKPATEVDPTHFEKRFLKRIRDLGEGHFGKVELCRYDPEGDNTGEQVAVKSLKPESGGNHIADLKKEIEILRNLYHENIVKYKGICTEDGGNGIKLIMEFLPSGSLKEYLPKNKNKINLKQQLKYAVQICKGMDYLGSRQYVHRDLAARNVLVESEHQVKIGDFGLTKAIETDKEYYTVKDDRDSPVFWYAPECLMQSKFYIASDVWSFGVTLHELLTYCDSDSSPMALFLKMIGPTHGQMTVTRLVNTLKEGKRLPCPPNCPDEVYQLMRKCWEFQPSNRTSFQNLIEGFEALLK
T4 sequence (O60674 whole entry): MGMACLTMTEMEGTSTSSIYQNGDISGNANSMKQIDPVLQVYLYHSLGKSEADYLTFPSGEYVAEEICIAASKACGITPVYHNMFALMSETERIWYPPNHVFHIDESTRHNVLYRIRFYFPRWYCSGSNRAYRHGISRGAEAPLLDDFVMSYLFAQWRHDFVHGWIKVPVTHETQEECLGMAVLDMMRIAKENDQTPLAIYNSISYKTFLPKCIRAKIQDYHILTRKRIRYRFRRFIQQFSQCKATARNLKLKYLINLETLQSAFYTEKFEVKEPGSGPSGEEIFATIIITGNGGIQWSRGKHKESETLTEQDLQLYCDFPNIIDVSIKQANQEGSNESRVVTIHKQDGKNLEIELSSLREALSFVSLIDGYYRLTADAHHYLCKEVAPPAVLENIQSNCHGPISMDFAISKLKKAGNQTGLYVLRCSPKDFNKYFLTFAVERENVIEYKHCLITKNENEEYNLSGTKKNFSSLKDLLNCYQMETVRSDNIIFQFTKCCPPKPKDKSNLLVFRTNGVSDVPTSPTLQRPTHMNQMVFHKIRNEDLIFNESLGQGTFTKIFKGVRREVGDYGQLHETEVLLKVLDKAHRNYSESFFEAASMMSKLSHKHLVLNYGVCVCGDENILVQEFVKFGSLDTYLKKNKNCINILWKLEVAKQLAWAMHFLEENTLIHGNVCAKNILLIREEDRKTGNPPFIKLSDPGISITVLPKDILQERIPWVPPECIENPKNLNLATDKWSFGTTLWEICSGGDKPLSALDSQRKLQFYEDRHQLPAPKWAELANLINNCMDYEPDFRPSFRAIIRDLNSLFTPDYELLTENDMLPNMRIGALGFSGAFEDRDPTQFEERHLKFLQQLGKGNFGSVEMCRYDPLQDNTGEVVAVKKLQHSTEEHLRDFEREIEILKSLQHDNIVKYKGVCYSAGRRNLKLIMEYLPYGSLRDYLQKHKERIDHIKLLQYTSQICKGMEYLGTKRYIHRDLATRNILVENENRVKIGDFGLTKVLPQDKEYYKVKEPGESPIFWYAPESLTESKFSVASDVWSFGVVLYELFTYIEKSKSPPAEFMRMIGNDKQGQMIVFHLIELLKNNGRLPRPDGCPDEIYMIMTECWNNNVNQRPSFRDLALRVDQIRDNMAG
T2 sequence (P29597 whole entry): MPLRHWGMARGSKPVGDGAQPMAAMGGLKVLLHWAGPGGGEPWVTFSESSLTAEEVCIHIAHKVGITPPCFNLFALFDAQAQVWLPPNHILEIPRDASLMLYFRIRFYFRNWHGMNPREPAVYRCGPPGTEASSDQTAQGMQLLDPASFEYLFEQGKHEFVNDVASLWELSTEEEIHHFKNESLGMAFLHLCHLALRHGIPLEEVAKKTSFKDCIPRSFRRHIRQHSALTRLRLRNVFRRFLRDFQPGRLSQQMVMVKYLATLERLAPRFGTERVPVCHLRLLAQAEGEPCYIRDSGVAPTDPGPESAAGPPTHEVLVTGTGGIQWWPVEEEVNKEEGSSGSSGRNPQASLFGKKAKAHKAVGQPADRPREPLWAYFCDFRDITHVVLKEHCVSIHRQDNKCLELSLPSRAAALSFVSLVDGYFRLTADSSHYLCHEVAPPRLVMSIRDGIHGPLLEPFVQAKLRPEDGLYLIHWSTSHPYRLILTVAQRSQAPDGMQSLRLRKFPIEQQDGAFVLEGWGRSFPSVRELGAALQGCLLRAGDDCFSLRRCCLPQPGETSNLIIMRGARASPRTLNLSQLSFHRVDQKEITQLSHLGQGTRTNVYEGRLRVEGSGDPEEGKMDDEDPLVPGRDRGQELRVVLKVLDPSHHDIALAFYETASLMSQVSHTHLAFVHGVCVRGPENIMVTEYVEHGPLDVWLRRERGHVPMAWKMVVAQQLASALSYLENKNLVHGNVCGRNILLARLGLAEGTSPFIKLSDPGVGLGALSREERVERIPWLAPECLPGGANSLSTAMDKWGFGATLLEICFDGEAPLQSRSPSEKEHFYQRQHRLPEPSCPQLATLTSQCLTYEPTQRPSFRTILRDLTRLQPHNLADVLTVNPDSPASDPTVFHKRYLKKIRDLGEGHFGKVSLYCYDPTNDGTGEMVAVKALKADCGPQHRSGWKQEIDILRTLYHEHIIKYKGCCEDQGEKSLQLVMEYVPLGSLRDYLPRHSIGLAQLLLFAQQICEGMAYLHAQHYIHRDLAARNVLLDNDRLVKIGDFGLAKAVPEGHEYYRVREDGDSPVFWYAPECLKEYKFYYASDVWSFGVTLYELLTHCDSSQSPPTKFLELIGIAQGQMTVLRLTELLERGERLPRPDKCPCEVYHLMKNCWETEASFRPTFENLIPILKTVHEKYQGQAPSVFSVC

IC50 (Recombinant JAK3)	IC50 (Recombinant TYK2)	IC50 (Recombinant JAK1)	IC50 (Recombinant JAK2)	SMILES
> 1 µM	> 1 µM	> 1 µM	> 1 µM	O=C(Cc1ccc(-n2cc(-c3ccnc4[nH]cnc34)cn2)nc1)NCC(F)(F)F [Example 1092, 2-(6-(4-(3H-imidazo[4,5-b]pyridin-7-yl)-1H-pyrazol-1-yl)pyridin-3-yl)-N-(2,2,2-trifluoroethyl)acetamide]
< 0.5 µM	> 10 µM	> 0.5 µM	< 0.5 µM	N#CCNC(=O)c1cnc(-n2cc(-c3ccnc4[nH]cnc34)cn2)nc1 [Example 1093, 2-(4-(3H-imidazo[4,5-b]pyridin-7-yl)-1H-pyrazol-1-yl)-N-(cyanomethyl)pyrimidine-5-carboxamide]
< 1 µM	> 10 µM	< 1 µM	< 1 µM	CCOc1nc2c(-c3cnn(C(=O)NCC(F)(F)F)c3)ccnc2[nH]1 [Example 1095, 4-(2-ethoxy-3H-imidazo[4,5-b]pyridin-7-yl)-N-(2,2,2-trifluoroethyl)-1H-pyrazole-1-carboxamide]
> 1 µM	> 10 µM	> 10 µM	> 1 µM	O=C(NCC(F)(F)F)n1cc(-c2ccnc3[nH]c(C4CC4)nc23)cn1 [Example 1096, 4-(2-cyclopropyl-3H-imidazo[4,5-b]pyridin-7-yl)-N-(2,2,2-trifluoroethyl)-1H-pyrazole-1-carboxamide]
> 10 µM	> 1 µM	> 10 µM	> 0.5 µM	COc1cc(-c2nc3c(-c4cnn(C5COCCC5C#N)c4)ccnc3[nH]2)ccc1Cl (stereo not drawn) [Example 1097, 3-(4-(2-(4-chloro-3-methoxyphenyl)-3H-imidazo[4,5-b]pyridin-7-yl)-1H-pyrazol-1-yl)-tetrahydro-2H-pyran-4-carbonitrile]
> 1 µM	> 10 µM	> 1 µM	> 1 µM	CC(=O)N1CCC(c2nc3c(-c4cnn(C(=O)NCC(F)(F)F)c4)ccnc3[nH]2)CC1 [Example 1098, 4-(2-(1-acetylpiperidin-4-yl)-3H-imidazo[4,5-b]pyridin-7-yl)-N-(2,2,2-trifluoroethyl)-1H-pyrazole-1-carboxamide]
< 0.5 µM	> 1 µM	> 1 µM	< 0.5 µM	N#CCc1ccc(-n2cc(-c3ccnc4[nH]cnc34)cn2)cc1F [Example 1104, 2-(4-(4-(3H-imidazo[4,5-b]pyridin-7-yl)-1H-pyrazol-1-yl)-2-fluorophenyl)acetonitrile]
> 0.5 µM	> 10 µM	> 1 µM	> 0.5 µM	COc1cc(-n2cc(-c3ccnc4[nH]cnc34)cn2)ccc1CC#N [Example 1105, 2-(4-(4-(3H-imidazo[4,5-b]pyridin-7-yl)-1H-pyrazol-1-yl)-2-methoxyphenyl)acetonitrile]
> 0.1 µM	> 1 µM	> 0.1 µM	> 0.5 µM	N#CC(c1ccc(-n2cc(-c3ccnc4[nH]cnc34)cn2)nc1)C1CC1 (stereo not drawn) [Example 1110, 2-(6-(4-(3H-imidazo[4,5-b]pyridin-7-yl)-1H-pyrazol-1-yl)pyridin-3-yl)-2-cyclopropylacetonitrile]
> 0.5 µM	> 1 µM	> 0.5 µM	> 0.5 µM	CS(=O)(=O)N1CC(C(C#N)c2ccc(-n3cc(-c4ccnc5[nH]cnc45)cn3)nc2)C1 (stereo not drawn) [Example 1115, 2-(6-(4-(3H-imidazo[4,5-b]pyridin-7-yl)-1H-pyrazol-1-yl)pyridin-3-yl)-2-(1-(methylsulfonyl)azetidin-3-yl)acetonitrile]
> 0.5 µM	> 1 µM	> 1 µM	> 1 µM	CC(C)OC(c1ccc(-n2cc(-c3ccnc4[nH]cnc34)cn2)nc1)C(F)(F)F (stereo not drawn) [Example 1124, 7-(1-(5-(2,2,2-trifluoro-1-isopropoxyethyl)pyridin-2-yl)-1H-pyrazol-4-yl)-3H-imidazo[4,5-b]pyridine]
< 0.1 µM	> 1 µM	< 0.1 µM	< 0.1 µM	CS(=O)(=O)COC(c1ccc(-n2cc(-c3ccnc4[nH]cnc34)cn2)nc1)C(F)(F)F (stereo not drawn) [Example 1140, 7-(1-(5-(1-((methylsulfonyl)methoxy)-2,2,2-trifluoroethyl)pyridin-2-yl)-1H-pyrazol-4-yl)-3H-imidazo[4,5-b]pyridine]
> 1 µM	> 1 µM	> 0.5 µM	> 1 µM	CS(=O)(=O)CCC(c1ccc(-n2cc(-c3ccnc4[nH]c(=O)[nH]c34)cn2)nc1)C(F)(F)F (stereo not drawn) [Example 1147, 7-(1-(5-(1,1,1-trifluoro-4-(methylsulfonyl)butan-2-yl)pyridin-2-yl)-1H-pyrazol-4-yl)-1H-imidazo[4,5-b]pyridin-2(3H)-one]
> 0.1 µM	> 1 µM	> 0.1 µM	> 0.5 µM	COCCC(c1ccc(-n2cc(-c3ccnc4[nH]cnc34)cn2)nc1)C(F)(F)F (stereo not drawn) [Example 1155, 7-(1-(5-(1,1,1-trifluoro-4-methoxybutan-2-yl)pyridin-2-yl)-1H-pyrazol-4-yl)-3H-imidazo[4,5-b]pyridine]
< 0.1 µM	> 1 µM	< 0.1 µM	> 0.1 µM	OC(c1ccc(-n2cc(-c3ccnc4[nH]cnc34)cn2)nc1)C1CC1 (stereo not drawn) [Example 1159, (6-(4-(3H-imidazo[4,5-b]pyridin-7-yl)-1H-pyrazol-1-yl)pyridin-3-yl)(cyclopropyl)methanol]
> 0.5 µM	> 1 µM	> 0.1 µM	> 0.5 µM	CS(=O)(=O)CCC(c1ccc(-n2cc(-c3ccnc4[nH]cnc34)cn2)nc1)C1COC1 (stereo not drawn) [Example 1160, 7-(1-(5-(3-(methylsulfonyl)-1-(oxetan-3-yl)propyl)pyridin-2-yl)-1H-pyrazol-4-yl)-3H-imidazo[4,5-b]pyridine]
> 0.5 µM	> 1 µM	> 1 µM	> 1 µM	COC(CCS(C)(=O)=O)c1ccc(-n2cc(-c3ccnc4[nH]cnc34)cn2)nc1 (stereo not drawn) [Example 1161, 7-(1-(5-(1-methoxy-3-(methylsulfonyl)propyl)pyridin-2-yl)-1H-pyrazol-4-yl)-3H-imidazo[4,5-b]pyridine]
> 0.5 µM	> 1 µM	> 0.5 µM	> 0.5 µM	CS(=O)(=O)CCC(F)c1ccc(-n2cc(-c3ccnc4[nH]cnc34)cn2)nc1 (stereo not drawn) [Example 1162, 7-(1-(5-(1-fluoro-3-(methylsulfonyl)propyl)pyridin-2-yl)-1H-pyrazol-4-yl)-3H-imidazo[4,5-b]pyridine]
> 0.5 µM	> 1 µM	> 0.5 µM	> 0.5 µM	CC(CCS(C)(=O)=O)c1ccc(-n2cc(-c3ccnc4[nH]cnc34)cn2)nc1 (stereo not drawn) [Example 1163, 7-(1-(5-(4-(methylsulfonyl)butan-2-yl)pyridin-2-yl)-1H-pyrazol-4-yl)-3H-imidazo[4,5-b]pyridine]
> 1 µM	> 1 µM	> 1 µM	> 1 µM	CS(=O)(=O)N1CCC(C(O)c2ccc(-n3cc(-c4ccnc5[nH]cnc45)cn3)nc2)CC1 (stereo not drawn) [Example 1164, (6-(4-(3H-imidazo[4,5-b]pyridin-7-yl)-1H-pyrazol-1-yl)pyridin-3-yl)(1-(methylsulfonyl)piperidin-4-yl)methanol]
> 1 µM	> 1 µM	> 1 µM	> 1 µM	CN1CCC(C(O)c2ccc(-n3cc(-c4ccnc5[nH]cnc45)cn3)nc2)CC1 (stereo not drawn) [Example 1165, (6-(4-(3H-imidazo[4,5-b]pyridin-7-yl)-1H-pyrazol-1-yl)pyridin-3-yl)(1-methylpiperidin-4-yl)methanol]
